Source: ChEMBL document CHEMBL2331539, “A comparative protease stability study of synthetic macrocyclic peptides that mimic two endocrine hormones” (Bioorg Med Chem Lett, 2013)
Square brackets hold non-standard residues; d marks the D form. Peptide text beside a SMILES is read from it. Dap = NC[C@H](N)C(=O)O

How the values were obtained:
[1] = Stability of the compound in presence of alpha-chymotrypsin (unknown origin) assessed as degradation measured after 60 mins by HPLC analysis; type: ADME, Homo sapiens; conditions: read-out: Drug degradation
Vasopressin V2 receptor = Vasopressin V2 receptor (Homo sapiens, UniProt P30518); assay: Binding affinity to vasopression V2 receptor (unknown origin) on isolated cell membrane by vasopression competition binding assay
Chain of Vasopressin V2 receptor (P30518 whole entry): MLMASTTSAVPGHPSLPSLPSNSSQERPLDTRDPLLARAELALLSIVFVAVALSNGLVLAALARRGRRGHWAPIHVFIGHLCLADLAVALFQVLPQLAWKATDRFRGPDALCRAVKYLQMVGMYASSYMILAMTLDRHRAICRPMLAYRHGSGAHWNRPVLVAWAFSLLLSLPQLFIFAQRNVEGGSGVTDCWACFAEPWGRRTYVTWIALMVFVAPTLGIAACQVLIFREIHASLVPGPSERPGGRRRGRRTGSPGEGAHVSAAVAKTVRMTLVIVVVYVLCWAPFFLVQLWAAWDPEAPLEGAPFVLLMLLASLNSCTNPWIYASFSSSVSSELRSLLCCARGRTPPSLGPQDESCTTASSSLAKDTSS

[2] = Stability of the compound in presence of alpha-chymotrypsin (unknown origin) assessed as degradation measured after 360 mins by HPLC analysis; type: ADME, Homo sapiens; conditions: read-out: Drug degradation
[3] = Stability of the compound in presence of pepsin (unknown origin) assessed as degradation measured after 120 mins by HPLC analysis; type: ADME, Homo sapiens; conditions: read-out: Drug degradation
[4] = Stability of the compound in presence of alpha-chymotrypsin (unknown origin) assessed as degradation measured after 120 mins by HPLC analysis; type: ADME, Homo sapiens; conditions: read-out: Drug degradation
[5] = Stability of the compound in presence of pepsin (unknown origin) assessed as degradation measured after 60 mins by HPLC analysis; type: ADME, Homo sapiens; conditions: read-out: Drug degradation
[6] = Stability of the compound in presence of pronase (unknown origin) assessed as degradation measured after 60 mins by HPLC analysis; type: ADME; conditions: read-out: Drug degradation
[7] = Stability of the compound in presence of pepsin (unknown origin) assessed as degradation measured after 360 mins by HPLC analysis; type: ADME, Homo sapiens; conditions: read-out: Drug degradation
[8] = Stability of the compound in presence of pronase (unknown origin) assessed as degradation measured after 120 mins by HPLC analysis; type: ADME; conditions: read-out: Drug degradation
[9] = Stability of the compound in presence of pronase (unknown origin) assessed as degradation measured after 360 mins by HPLC analysis; type: ADME; conditions: read-out: Drug degradation

| metabolised at 1 h [1] | IC50 (Vasopressin V2 receptor) | metabolised at 6 h [2] | metabolised at 2 h [3] | metabolised at 2 h [4] | metabolised at 1 h [5] | metabolised at 1 h [6] | metabolised at 6 h [7] | metabolised at 2 h [8] | metabolised at 6 h [9] | Structure (SMILES) |
| --- | --- | --- | --- | --- | --- | --- | --- | --- | --- | --- |
| -0.98% | 2 µM | 24.7% | 10.2% | 1.49% | 5.39% | 27.9% | 5.23% | 50.2% | 64.2% | NC(=O)CC[C@@H]1NC(=O)[C@H](Cc2ccccc2)NC(=O)[C@H](Cc2ccc(O)cc2)NC(=O)[C@H](Cc2ccc(O)cc2)NC(=O)CNC(=O)[C@H](CC(N)=O)NC1=O (cyclo(FQNGYY)) |
| 6.62% | 10.2 µM | 20.3% | 3.52% | 7.08% | 0.716% | -2.07% | 2.08% | 0.323% | 0.882% | NC[C@@H]1NC(=O)CNC(=O)[C@H](CC(N)=O)NC(=O)[C@H](CCC(N)=O)NC(=O)[C@H](Cc2ccccc2)NC(=O)[C@H](Cc2ccc(O)cc2)NC1=O (cyclo([Dap]YFQNG)) |
| 25.1% |  | 74.6% |  | 43.2% |  | 69.6% |  | 96.8% | 100% | CC[C@H](C)[C@@H]1NC(=O)[C@H](Cc2ccc(O)cc2)NC(=O)[C@@H](N)CSSC[C@@H](C(=O)N2CCC[C@H]2C(=O)N[C@@H](CC(C)C)C(=O)NCC(N)=O)NC(=O)[C@H](CC(N)=O)NC(=O)[C@H](CCC(N)=O)NC1=O [OXYTOCIN] |

The remaining lines, values behind:

| Structure (SMILES) | metabolised at 1 h [1] | IC50 (Vasopressin V2 receptor) | metabolised at 6 h [2] | metabolised at 2 h [3] | metabolised at 2 h [4] | metabolised at 1 h [5] | metabolised at 1 h [6] | metabolised at 6 h [7] | metabolised at 2 h [8] | metabolised at 6 h [9] |
| --- | --- | --- | --- | --- | --- | --- | --- | --- | --- | --- |
| CC[C@H](C)[C@@H]1NC(=O)[C@H](Cc2ccc(O)cc2)NC(=O)[C@H](CN)NC(=O)CNC(=O)[C@H](CC(N)=O)NC(=O)[C@H](CCC(N)=O)NC1=O (cyclo([Dap]YIQNG)) | 0.136% |  | 0.0955% | -0.41% | 0% | 2.34% | 11.5% | 4.66% | 2.99% | 6.2% |
| NC(=O)CC[C@@H]1NC(=O)[C@H](Cc2ccccc2)NC(=O)[C@H](Cc2ccc(O)cc2)NC(=O)[C@@H](N)CSSC[C@@H](C(=O)N2CCC[C@H]2C(=O)N[C@@H](CCCN=C(N)N)C(=O)NCC(N)=O)NC(=O)[C@H](CC(N)=O)NC1=O [VASOPRESSIN] | 18.7% |  | 46.1% | 78.6% | 32.1% | 79.8% | 4.4% | 80.1% | 15.9% | 48.2% |
